Experimental data reported in patent US20090306160A1, “METHODS FOR IMPROVING DRUG DISPOSITION” (priority 2005, published 2009).

Tests used:
MRP2 [1] = target: T1, MRP2 (Homo sapiens, UniProt Q92887); test: Vesicular uptake assay of [3H]LTC4 in membrane vesicles over-expressing MRP2; type: biochemical; conditions: [3H]LTC4 0.2 μM; for Vesicular uptake, AMP activation / Vesicular uptake, ATP activation: MRP2 vesicles
Protocol: (§1) In this assay ATP-dependent uptake into membrane vesicles with inside-out orientation is determined. Interaction of Compound I with ABC transporters is measured indirectly by incubating the purified membrane vesicles with known radioactive probe substrates ([^3H]LTC4 [0.2 μM] for MRP2-LTC4 stands for Leutriene C4- and [^3H]E1S [0.5 μM] -E1S stands for […]—for BCRP) in the presence and absence (negative control) of different concentrations of Compound I or a well-known positive control compound (Benzbromanone for MRP2 and Sulphasalazine for BCRP). As illustrated herein (Tables 2 and 3), Compound I inhibits [^3H]E1S as well as [^3H]LTC4 transport mediated by BCRP (IC50≅1 μM) and MRP2 (IC50≅50 μM), respectively.

MDR1 = MDR1 (Homo sapiens, UniProt P08183); test: ATPase assay, reconstituted membranes expressing high levels of MDR1; type: biochemical; conditions: for ATPase activity: MDR1 membranes
MDR1, sequence (P08183 whole entry, species assumed): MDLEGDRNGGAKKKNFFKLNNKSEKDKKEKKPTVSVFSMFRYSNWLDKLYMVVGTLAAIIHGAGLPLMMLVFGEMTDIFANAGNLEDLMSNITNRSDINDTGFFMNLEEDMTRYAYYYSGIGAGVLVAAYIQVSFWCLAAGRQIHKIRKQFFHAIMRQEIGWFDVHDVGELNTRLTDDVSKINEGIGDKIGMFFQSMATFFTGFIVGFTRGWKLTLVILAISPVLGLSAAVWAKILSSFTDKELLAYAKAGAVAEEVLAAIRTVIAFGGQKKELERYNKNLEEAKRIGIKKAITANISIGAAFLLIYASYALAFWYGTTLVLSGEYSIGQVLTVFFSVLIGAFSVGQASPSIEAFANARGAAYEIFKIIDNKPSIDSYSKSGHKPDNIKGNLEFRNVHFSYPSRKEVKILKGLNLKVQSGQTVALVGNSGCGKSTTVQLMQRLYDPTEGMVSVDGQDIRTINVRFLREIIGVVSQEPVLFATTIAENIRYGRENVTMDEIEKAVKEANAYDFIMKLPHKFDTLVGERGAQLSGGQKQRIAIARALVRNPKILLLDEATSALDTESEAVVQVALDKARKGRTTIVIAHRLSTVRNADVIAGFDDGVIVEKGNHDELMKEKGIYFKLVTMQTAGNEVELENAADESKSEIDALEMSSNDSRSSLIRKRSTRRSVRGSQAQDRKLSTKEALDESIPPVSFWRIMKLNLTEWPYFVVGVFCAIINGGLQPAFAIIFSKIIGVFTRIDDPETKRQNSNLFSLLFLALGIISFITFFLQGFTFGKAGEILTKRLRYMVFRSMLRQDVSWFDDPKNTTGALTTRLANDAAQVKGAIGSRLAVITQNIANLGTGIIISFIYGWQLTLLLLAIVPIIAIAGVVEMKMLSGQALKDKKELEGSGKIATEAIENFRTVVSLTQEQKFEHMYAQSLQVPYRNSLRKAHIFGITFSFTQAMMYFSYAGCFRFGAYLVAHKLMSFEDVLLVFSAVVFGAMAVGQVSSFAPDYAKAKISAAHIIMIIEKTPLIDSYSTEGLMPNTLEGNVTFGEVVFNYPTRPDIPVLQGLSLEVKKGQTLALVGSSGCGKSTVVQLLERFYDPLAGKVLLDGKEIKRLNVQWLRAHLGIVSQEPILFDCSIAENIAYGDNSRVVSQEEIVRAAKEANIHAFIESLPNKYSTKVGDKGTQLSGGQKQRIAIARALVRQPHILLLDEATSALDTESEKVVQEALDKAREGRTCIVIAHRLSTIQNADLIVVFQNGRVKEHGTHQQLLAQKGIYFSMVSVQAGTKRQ
Text: (§2) In this assay the ABC transporters remove substrates out of reconstituted cell membranes by using ATP hydrolysis as an energy source. ATP hydrolysis yields inorganic phosphate (Pi), which can be detected by a simple colorimetric reaction. The amount of Pi liberated by the transporter is proportional to the activity of the transporter. Membrane preparations containing ABC transporters show a baseline ATPase activity that varies for different transporters. Transported substrates increase this baseline ATPase activity. […] No activation of the MDR1 efflux could be observed.

MRP2 [2] = target: T1, MRP2; test: ATPase assay, reconstituted membranes expressing high levels of MRP2; type: biochemical
Text: as §2

BCRP [3] = target: T2, BCRP (Homo sapiens, UniProt Q9UNQ0); test: ATPase assay, reconstituted membranes expressing high levels of BCRP; type: biochemical
T2 sequence (Q9UNQ0 1-655): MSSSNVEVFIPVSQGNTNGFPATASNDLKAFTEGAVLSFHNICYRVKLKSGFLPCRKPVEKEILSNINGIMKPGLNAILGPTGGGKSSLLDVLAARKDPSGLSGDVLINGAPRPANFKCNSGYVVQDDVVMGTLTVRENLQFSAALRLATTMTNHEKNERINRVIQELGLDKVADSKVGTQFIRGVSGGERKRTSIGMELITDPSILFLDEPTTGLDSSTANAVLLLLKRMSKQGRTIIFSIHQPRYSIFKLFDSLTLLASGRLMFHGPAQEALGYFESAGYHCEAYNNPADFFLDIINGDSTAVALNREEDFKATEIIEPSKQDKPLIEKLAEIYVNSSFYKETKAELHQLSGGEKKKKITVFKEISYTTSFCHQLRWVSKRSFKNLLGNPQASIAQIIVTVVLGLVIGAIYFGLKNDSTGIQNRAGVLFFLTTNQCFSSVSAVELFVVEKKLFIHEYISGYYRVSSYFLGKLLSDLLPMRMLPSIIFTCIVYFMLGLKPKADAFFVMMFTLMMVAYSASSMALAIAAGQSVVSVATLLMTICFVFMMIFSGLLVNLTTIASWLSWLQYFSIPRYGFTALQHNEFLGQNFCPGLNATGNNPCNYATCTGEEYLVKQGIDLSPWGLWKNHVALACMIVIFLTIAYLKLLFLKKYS
Text: as §2

BCRP [4] = target: T2, BCRP; test: Vesicular uptake assay of [3H]E1S in membrane vesicles over-expressing BCRP; type: biochemical; conditions: [3H]E1S 0.5 μM, read-out: IC50, inhibition of [3H]E1S transport mediated by BCRP
Protocol: as §1

[5] = Caco-2 bi-directional permeability assay; type: in vitro ADME; conditions: human, Caco-2
Protocol: (§3) Alternatively, the in vitro transporter affinity of a drug substance can be determined and approximated by measuring the compound permeability across cells known to express ABC transporters, as e.g. the Caco-2 cell line. Interaction of Compound I with ABC transporter(s) is measured by determining the concentration-dependent compound transport across Caco-2 cell monolayers from the apical (AP) to basolateral (BL) as well as the basolateral to apical side.

Caco-2 cell monolayers = test: Caco-2 bi-directional permeability assay; type: in vitro ADME; conditions: Caco-2 cell monolayers
Protocol: as §3

T1 sequence (Q92887 whole entry, species assumed): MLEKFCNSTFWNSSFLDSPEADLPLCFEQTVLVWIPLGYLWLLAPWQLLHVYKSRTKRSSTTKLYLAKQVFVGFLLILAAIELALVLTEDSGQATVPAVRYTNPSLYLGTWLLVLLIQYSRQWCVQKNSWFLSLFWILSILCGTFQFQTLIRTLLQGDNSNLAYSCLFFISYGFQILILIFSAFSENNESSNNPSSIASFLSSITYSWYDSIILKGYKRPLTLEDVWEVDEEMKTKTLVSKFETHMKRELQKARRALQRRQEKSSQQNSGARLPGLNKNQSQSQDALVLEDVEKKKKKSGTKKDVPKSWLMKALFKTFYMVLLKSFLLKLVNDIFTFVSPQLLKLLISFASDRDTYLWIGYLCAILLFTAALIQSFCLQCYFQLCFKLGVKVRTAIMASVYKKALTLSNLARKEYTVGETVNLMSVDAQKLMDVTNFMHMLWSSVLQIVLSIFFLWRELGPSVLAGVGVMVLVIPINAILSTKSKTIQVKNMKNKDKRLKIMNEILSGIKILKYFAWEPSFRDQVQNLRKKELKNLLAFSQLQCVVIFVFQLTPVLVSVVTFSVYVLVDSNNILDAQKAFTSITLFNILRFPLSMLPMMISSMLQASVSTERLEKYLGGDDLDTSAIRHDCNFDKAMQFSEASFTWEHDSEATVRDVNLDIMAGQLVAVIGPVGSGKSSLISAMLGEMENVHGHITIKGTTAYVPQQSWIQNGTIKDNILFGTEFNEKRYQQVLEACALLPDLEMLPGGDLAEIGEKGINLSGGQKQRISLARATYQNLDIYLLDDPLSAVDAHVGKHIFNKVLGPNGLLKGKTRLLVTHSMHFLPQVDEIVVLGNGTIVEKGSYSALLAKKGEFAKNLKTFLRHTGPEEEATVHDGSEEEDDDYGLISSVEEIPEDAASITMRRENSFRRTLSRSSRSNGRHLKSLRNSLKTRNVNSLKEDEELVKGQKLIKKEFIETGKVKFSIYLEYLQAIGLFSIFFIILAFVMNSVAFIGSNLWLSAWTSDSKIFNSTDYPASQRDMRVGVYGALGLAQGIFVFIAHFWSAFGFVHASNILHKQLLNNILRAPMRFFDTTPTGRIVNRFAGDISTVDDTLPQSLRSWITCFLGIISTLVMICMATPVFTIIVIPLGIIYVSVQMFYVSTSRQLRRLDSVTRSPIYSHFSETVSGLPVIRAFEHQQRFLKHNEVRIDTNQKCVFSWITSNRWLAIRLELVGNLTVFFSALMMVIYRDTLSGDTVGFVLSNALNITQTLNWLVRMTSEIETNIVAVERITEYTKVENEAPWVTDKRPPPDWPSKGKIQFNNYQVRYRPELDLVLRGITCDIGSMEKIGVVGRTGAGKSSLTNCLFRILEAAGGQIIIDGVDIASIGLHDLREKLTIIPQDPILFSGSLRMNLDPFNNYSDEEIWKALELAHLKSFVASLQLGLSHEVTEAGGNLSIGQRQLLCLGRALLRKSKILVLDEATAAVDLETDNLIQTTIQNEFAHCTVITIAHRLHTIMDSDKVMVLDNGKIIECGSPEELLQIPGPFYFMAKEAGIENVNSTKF

Q: Which “Vesicular uptake, AMP activation” value (MRP2 [1]; positive control conc. 3000 μM) does the source give for CCCCc1oc2ccccc2c1C(=O)c1cc(Br)c(O)c(Br)c1 [Benzbromanone, reference compound] here?
A: Its value is 11.1 pmol/mg/min.

Q: And the “Vesicular uptake, ATP activation” value (MRP2 [1]; positive control conc. 3000 μM)?
A: Its value is 10.8 pmol/mg/min.

Q: With O=C(O)c1ccc(-n2nc(-c3ccccc3O)nc2-c2ccccc2O)cc1 [Compound I, 4-[3,5-bis(2-hydroxyphenyl)-[1,2,4]trizol-1-yl]benzoic acid] as the compound, how does the ATPase activity (MDR1; Compound I 0.04 μM) read?
A: The ATPase activity was 18.7 ± 0.6 nmol Pi/min/mg protein.

Q: And the ATPase activity (MDR1; Compound I 0.13 μM)?
A: The ATPase activity was 18.0 ± 0.7 nmol Pi/min/mg protein.

Q: What about the ATPase activity (MDR1; Compound I 0.40 μM) of the same compound?
A: The ATPase activity was 17.4 ± 1.3 nmol Pi/min/mg protein.

Q: And the ATPase activity (MDR1; Compound I 1.21 μM)?
A: The ATPase activity was 17.0 ± 1.0 nmol Pi/min/mg protein.

Q: What about the ATPase activity (MDR1; Compound I 3.63 μM) of the same compound?
A: The ATPase activity was 17.3 ± 0.3 nmol Pi/min/mg protein.

Q: What about the ATPase activity (MDR1; Compound I 10.89 μM) of the same compound?
A: Its ATPase activity is 17.3 ± 0.5 nmol Pi/min/mg protein.

Q: What about the ATPase activity (MDR1; Compound I 32.67 μM) of the same compound?
A: Its ATPase activity is 17.3 ± 0.4 nmol Pi/min/mg protein.

Q: And the ATPase activity (MDR1; Compound I 98.0 μM)?
A: The ATPase activity was 16.7 ± 0.5 nmol Pi/min/mg protein.

Q: What about the “activation of the MDR1 efflux (ATPase)” value (MDR1; reconstituted membranes expressing high levels of MDR1) of the same compound?
A: Its value is “No activation”.

Q: And the ATPase activity (MRP2 [2]; Compound I 0.04 μM)?
A: The ATPase activity was 5.1 ± 0.6 nmol Pi/min/mg protein.

Q: And the ATPase activity (MRP2 [2]; Compound I 0.13 μM)?
A: The ATPase activity was 5.4 ± 0.3 nmol Pi/min/mg protein.

Q: What about the ATPase activity (MRP2 [2]; Compound I 0.40 μM) of the same compound?
A: The ATPase activity was 5.4 ± 0.1 nmol Pi/min/mg protein.

Q: What about the ATPase activity (MRP2 [2]; Compound I 1.21 μM) of the same compound?
A: The ATPase activity was 5.1 ± 0.4 nmol Pi/min/mg protein.

Q: What about the ATPase activity (MRP2 [2]; Compound I 3.63 μM) of the same compound?
A: Its ATPase activity is 5.0 ± 0.0 nmol Pi/min/mg protein.

Q: And the ATPase activity (MRP2 [2]; Compound I 10.89 μM)?
A: Its ATPase activity is 5.2 ± 0.4 nmol Pi/min/mg protein.

Q: What about the ATPase activity (MRP2 [2]; Compound I 32.67 μM) of the same compound?
A: The ATPase activity was 6.3 ± 0.2 nmol Pi/min/mg protein.

Q: What about the ATPase activity (MRP2 [2]; Compound I 98.0 μM) of the same compound?
A: Its ATPase activity is 8.3 ± 0.7 nmol Pi/min/mg protein.

Q: What about the ATPase activity (BCRP [3]; Compound I 0.04 μM) of the same compound?
A: The ATPase activity was 32.9 ± 1.0 nmol Pi/min/mg protein.

Q: And the ATPase activity (BCRP [3]; Compound I 0.13 μM)?
A: Its ATPase activity is 35.5 ± 0.8 nmol Pi/min/mg protein.

Q: What about the ATPase activity (BCRP [3]; Compound I 0.40 μM) of the same compound?
A: The ATPase activity was 34.2 ± 8.0 nmol Pi/min/mg protein.

Q: What about the ATPase activity (BCRP [3]; Compound I 1.21 μM) of the same compound?
A: Its ATPase activity is 49.4 ± 0.5 nmol Pi/min/mg protein.

Q: And the ATPase activity (BCRP [3]; Compound I 3.63 μM)?
A: Its ATPase activity is 61.1 ± 0.3 nmol Pi/min/mg protein.

Q: What about the ATPase activity (BCRP [3]; Compound I 10.89 μM) of the same compound?
A: Its ATPase activity is 65.9 ± 0.1 nmol Pi/min/mg protein.

Q: And the ATPase activity (BCRP [3]; Compound I 32.67 μM)?
A: The ATPase activity was 65.7 ± 0.5 nmol Pi/min/mg protein.

Q: What about the ATPase activity (BCRP [3]; Compound I 98.0 μM) of the same compound?
A: Its ATPase activity is 60.3 ± 1.6 nmol Pi/min/mg protein.

Q: And the IC50 (BCRP [4])?
A: The IC50 was ~1 µM.

Q: What about the “Vesicular uptake, AMP activation” value (MRP2 [1]; compound conc. 10 μM) of the same compound?
A: The value was 5.4 pmol/mg/min.

Q: What about the “Vesicular uptake, ATP activation” value (MRP2 [1]; compound conc. 10 μM) of the same compound?
A: Its value is 25.6 pmol/mg/min.

Q: What about the “Vesicular uptake, AMP activation” value (MRP2 [1]; compound conc. 100 μM) of the same compound?
A: The value was 5.8 pmol/mg/min.

Q: And the “Vesicular uptake, ATP activation” value (MRP2 [1]; compound conc. 100 μM)?
A: Its value is 11.5 pmol/mg/min.

Q: And the IC50 (MRP2 [1]; membrane vesicles, read-out: IC50, inhibition of [3H]LTC4 transport mediated by MRP2)?
A: Its IC50 is ~50 µM.

Q: What about the Papp A→B at 1 μM ([5]; apical to basolateral, conc. 1 μM, read-out: Caco-2 permeability Papp(AP-BL) (converted)) of the same compound?
A: The Papp A→B at 1 μM was 10 nm/s.

Q: What about the Papp A→B at 5 μM ([5]; apical to basolateral, conc. 5 μM, read-out: Caco-2 permeability Papp(AP-BL) (converted)) of the same compound?
A: The Papp A→B at 5 μM was 76.7 nm/s.

Q: And the Papp A→B at 10 μM ([5]; apical to basolateral, conc. 10 μM, read-out: Caco-2 permeability Papp(AP-BL) (converted))?
A: Its Papp A→B at 10 μM is 116 nm/s.

Q: And the Papp A→B at 50 μM ([5]; apical to basolateral, conc. 50 μM, read-out: Caco-2 permeability Papp(AP-BL) (converted))?
A: The Papp A→B at 50 μM was 146 nm/s.

Q: What about the Papp B→A at 1 μM ([5]; basolateral to apical, conc. 1 μM, read-out: Caco-2 permeability Papp(BL-AP) (converted)) of the same compound?
A: The Papp B→A at 1 μM was 155 nm/s.

Q: What about the Papp B→A at 5 μM ([5]; basolateral to apical, conc. 5 μM, read-out: Caco-2 permeability Papp(BL-AP) (converted)) of the same compound?
A: Its Papp B→A at 5 μM is 238 nm/s.

Q: What about the Papp B→A at 10 μM ([5]; basolateral to apical, conc. 10 μM, read-out: Caco-2 permeability Papp(BL-AP) (converted)) of the same compound?
A: Its Papp B→A at 10 μM is 222 nm/s.

Q: What about the Papp B→A at 50 μM ([5]; basolateral to apical, conc. 50 μM, read-out: Caco-2 permeability Papp(BL-AP) (converted)) of the same compound?
A: The Papp B→A at 50 μM was 215 nm/s.

Q: What about the “concentration at which bi-directional permeability values converge (complete efflux transporter saturation)” value (Caco-2 cell monolayers) of the same compound?
A: Its value is “about 50 μM”.

Q: What about the efflux substrate identification (Caco-2 cell monolayers; AP-BL vs BL-AP transport) of the same compound?
A: Its efflux substrate identification is “substrate for one or several prominent efflux system(s)”.

Q: What about the Km (Caco-2 cell monolayers; bi-directional transport, read-out: apparent Km of efflux transport) of the same compound?
A: The Km was ~5 µM.
